The source of these data is patent US20140227173A1, “CANCER TREATMENT WITH GAMMA-SECRETASE INHIBITORS” (The Johns Hopkins University, priority 2006, published 2014).

Entries after “also recorded” stand apart in the source; their conditions may differ.

The test system of test [1] is GBM neurosphere line HSR-GBM1a. Put plainly: CD133 expression in GBM neurosphere culture. The test is classed as cell-based. To be noted: 2 μM. On the procedure:
(§1) (A, B) CD133 is expressed in GBM neurosphere line HSR-GBM1a. (C) The total cell number was decreased upon GSI-18 treatment for 48 h in this line and in the subclones of the line. […] (E) Protein expression of Hes1, a Notch pathway target gene, was reduced upon GSI-18 treatment in GBM neurosphere cells.
(§2) It has been shown that the Notch signaling pathway regulates normal stem cells in the Central Neural System (CNS), and that GBMs contain cancer stem cells (CSCs) with higher Notch activity (Cancer Research, 64:7011-21, 2004; Cancer Cell, 9:391-403, 2006). However, it has not been known if Notch pathway blockade could target CSCs in GBM. […] In the present study, we used GBM neurospheres to examine the effects of Notch pathway blockade in GBM. […] Furthermore, overexpression of an active form of Notch2 (NICD2) increases tumor growth in vitro.

The next test concerns MB2. Nature of the test: Nestin immunocytochemistry, nestin-positive fraction. The format is cell-based. To be noted: 2 μM, 48 hours.
Another test has as its system Panc-1. Put plainly: Colony formation in soft agar (clonogenicity). The test is classed as cell-based, human. The conditions noted are these: colony counts at two weeks. An excerpt:
Specificity of the RNA interference is confirmed by downregulation of Notch1 transcript levels with the specific siRA, but not with the scrambled controls. […] Bar graphs represent colony counts at two weeks, with mean and standard deviations calculated from triplicate experiments.
Bar graphs represent colony counts at two weeks, with mean and standard deviations calculated from triplicate experiments.

The next test deals with GBM20913. Put plainly: Survival of mice bearing intracranial xenografts of pretreated GBM neurosphere cells. The test is classed as in vivo. The conditions noted are these: vs vehicle (DMSO) treated cells.
For test [2], the system named is DAOY expressing activated Akt. Put plainly: Apoptosis and growth in DAOY subclones expressing constitutively active Akt. The format is cell-based. On the procedure: (A) Increase of cleaved Caspase 3 and loss of Akt phosphorylation is induced by 0.4 uMor higher levels of GSI-18, while overall levels of Akt and GAPDH are unchanged in DAOY medulloblastoma cells. (B) Cell death in 2 uM GSI-18 is reduced in a representative subclone of DAOY expressing activated Akt as compare to vector transfected cells. (C) Loss of Akt phosphorylation and activation of Caspase3 cleavage is induced by 2 μM or higher levels of GSI-18, while overall levels of Akt and GAPDH are unchanged in GBM neurosphere cells.
It has previously been shown that Akt is a critical effector of Notch-regulated survival and growth outside the brain (26, 27). Therefore, it was examined whether Akt was also a mediator of the pro-survival and pro-growth effects of Notch in brain tumors. GSI-18 blocks the phosphorylation of Akt required for its activation at concentrations as low as 0.4 μM (FIG. 7F). […] Thus the pro-survival effects of Notch signaling in MB appear to be mediated at least in part by Akt.
(§3) The DAOY, PFSK, D283 and D425 Med cell lines were obtained from the American Type Culture Collection. The low-passage MB line MB2 was derived from a tumor resected at Johns Hopkins Hospital. For treatment studies, cell were plated and allowed to grow overnight in MEM (Invitrogen, Carlsbad, Calif.) containing 10% FBS, then media was replaced the next morning with low serum (0.5% FBS) MEM containing GSI dissolved in DMSO. RNA and protein extractions, and all cell-based assays, were performed 48 hours after drug application unless otherwise noted. […] Cell mass was measured using CellTITER assays according to the manufacturer's instructions (Promega, Madison, Wis.). Cell number and viability were assessed using the Guava PCA and Viacount reagent according to instructions (Guava Technologies, Heyward, Calif.). Soft agar assays were performed as previously described (15) and scored either manually after 4 weeks or using as automated reader after 6 weeks. […] Soft agar assays were performed as previously described, with colonies counted using an automated reader (15).

Another test has as its system D283Med. Nature of the test: Number of live cells (Guava Viacount). The format is cell-based. The conditions noted are these: 2 μM. As to the method:
(§4) The fact that cultures grew 2-fold or more during the same time period that side population was essentially ablated by Notch pathway blockade provides additional support for the notion that medulloblatoma CSC are especially vulnerable to Notch signaling inhibition.
(§5) The DAOY, PFSK, D283 and D425 Med cell lines were obtained from the American Type Culture Collection. The low-passage MB line MB2 was derived from a tumor resected at Johns Hopkins Hospital. For treatment studies, cell were plated and allowed to grow overnight in MEM (Invitrogen, Carlsbad, Calif.) containing 10% FBS, then media was replaced the next morning with low serum (0.5% FBS) MEM containing GSI dissolved in DMSO. RNA and protein extractions, and all cell-based assays, were performed 48 hours after drug application unless otherwise noted. All experiments with error bars were performed in triplicate and shown as mean values with standard error unless otherwise noted. Cell mass was measured using CellTITER assays according to the manufacturer's instructions (Promega, Madison, Wis.). Cell number and viability were assessed using the Guava PCA and Viacount reagent according to instructions (Guava Technologies, Heyward, Calif.). Soft agar assays were performed as previously described (15) and scored either manually after 4 weeks or using as automated reader after 6 weeks. The constitutively active Akt stable cell line was made by transfecting DAOY cells with myristolated Akt (pCB6-IMy-Akt-HA) or control (pCB6+) plasmids (kind gifts from Susan J. Baker) and selecting and maintaining clones in 0.8 mg/ml G418. Soft agar assays were performed as previously described, with colonies counted using an automated reader (15).

For test [3], the system named is D425Med. Put plainly: Number of live cells (Guava Viacount). The test is classed as cell-based. To be noted: 2 μM. On the procedure:
as §4, §5

The next test deals with PFSK. Put plainly: Number of live cells (Guava Viacount). The test is classed as cell-based. To be noted: 2 μM. On the procedure:
as §4, §5

For a further test, the system named is DAOY. Nature of the test: Number of live cells (Guava Viacount). The format is cell-based. The conditions noted are these: 2 μM. On the procedure: as §4, §5
The subject of test [4] is GBM neurosphere line HSR-GBM1a. Nature of the test: Growth of GBM neurospheres in vitro (total cell number). The test is classed as cell-based. On the procedure:
as §1, §2

The test system of another test is DAOY:NICD2. Put plainly: Flow cytometric analysis of CD133-positive fraction. The conditions noted are these: DAOY:NICD2 expressing truncated Notch2; 2 μM. The test is classed as cell-based. As to the method:
Consistent with the hypothesis that Notch is important in CSC, gain or loss of pathway activity modulated the size of the CD133-expressing stem-like subpopulation (FIG. 4B). This fraction was elevated to 17.2% in DAOY cells stably transfected with a plasmid encoding the constitutively active Notch2 intracellular domain (DAOY:NICD2). In contrast, Notch pathway inhibition using GSI-18, a potent sulfonamide GSI (21), reduced the CD133-positive stem-like fraction […] to 3.3% (p<0.01). […] 2 μM GSI-18 was used in these experiments, as both mRNA and protein levels of the Notch pathway target Hes1 are reduced over 70% after 48 hours by this concentration of the drug (FIG. 4E).
as §3, with “Hospital.” for “Hospital. For treatment studies, cell were plated and allowed to grow overnight in MEM (Invitrogen, Carlsbad, Calif.) containing 10% FBS, then media was replaced the next morning with low serum (0.5% FBS) MEM containing GSI dissolved in DMSO. RNA and protein extractions, and all cell-based assays, were performed 48 hours after drug application unless otherwise noted.”, “(15). […]” for “(15).”
A general note: Flow cytometry measures light scatter and fluorescence of single cells or particles in a stream.

Test [5] deals with D425Med. Nature of the test: Xenograft initiation by pretreated cells in athymic (nude) mice. The conditions noted are these: treated 48 hours, n=2. The format is in vivo.

Turning to `O=S(=O)(NC1C2CCC1Cc1ccccc1C2)c1cccs1` (stereo not drawn) [GSI-18, [11-endo]-N-(5,6,7,8,9,10-hexahydro-6,9-methanobenzo[α][8]annulen-11-yl)-thiophene-2-sulfonamide], in test [1], the “CD133 expression in the whole culture” value was “significantly reduced; also recorded: reduces expression of CD133”. Moreover, the nestin-positive fraction entry in the test with MB2 is “significant reduction”. The “clonogenicity, colony formation in soft agar” value in the test with Panc-1 is recorded as “significant inhibition of clonogencity”. The “survival of mice with intracranial xenografts from pretreated cells” value with GBM20913 is “prolonged survival; also recorded: longer survival”. For the same compound, in test [2] (2 uM, representative subclone of DAOY expressing activated Akt), the “cell death vs vector transfected cells” value is reported as “reduced”. The “apoptotic rate on exposure” value in test [2] (MB cells stably transfected with constitutively active Akt, 2 μM) was “not significantly increased”. Further, the “inhibition of cell growth in Akt-transfected subclones” value in test [2] (two DAOY subclones with constitutively active Akt, data not shown) is “partially rescued”. Also, the “growth in the number of live cells” value in the test on D283Med, with D425Med [3], in the test on PFSK and with DAOY was “reduced as compared to vehicle treated controls” throughout. Besides, in test [4] (48 h, HSR-GBM1a and subclones), the total cell number entry is “decreased”. Also, the “tumor growth in vitro” value in [4] (GBM neurospheres, 2 μM) was “inhibits tumor growth in vitro”. In addition, the “sensitivity of CD133-positive fraction to the inhibitor” value in the test on DAOY:NICD2 is reported as “insensitive to GSI-18”. The “engraftment of pretreated cells” value with D425Med [5] was “failed to engraft”.
